{"source": "patent US12089593B2", "about": "“Compositions and methods for treating and preventing dust mite infestation” (EVOLVA SA, priority 2016, dated 2024)", "test_system": "Dust mite Dermataphagoides farinae", "test": "Laboratory bioassay: dust mite susceptibility to nootkatone on treated filter paper envelopes", "assay_type": "in vivo", "text": "This example describes a laboratory bioassay in which groups of dust mites were exposed to a solution of the product to determine dust mite susceptibility to nootkatone.\nOne milliliter of a 1% (wt/vol) nootkatone in ethanol formulation was applied directly to 9 cm discs of filter paper by pipette. The filter papers were allowed to dry completely and were cut to the appropriate size prior to the start of the test. Pure ethanol was used as a control.\nTreated and untreated (ethanol-treated only) filter papers were cut into 2.5 inch (6.35 cm) squares and folded into envelopes to serve as containers for the test. Five replicates of 35 dust mites were tested per treatment. After the mites were placed inside, the openings were sealed using clips so that the mites could not escape.\nDust mites were only observed after 72 hours post-introduction to the test containers, due to their small size, and the likelihood of loss of mites during handling. […] Results", "key": {"[1]": {"conditions": "72 hours post introduction, filter paper treated with 1 mL of 1% (wt/vol) nootkatone in ethanol, dried, five replicates of 35 adult mixed-sex mites"}}}
{"smiles": "C=C(C)[C@@H]1CCC2=CC(=O)C[C@@H](C)[C@]2(C)C1", "note": "[Nootkatone, nootkatone]", "values": [{"measurement": "state of mites after exposure (175 total mites)", "setting": "72 hours of exposure to filter papers treated with 1% nootkatone in ethanol", "value": "all dead"}, {"measurement": "Means Affected", "setting": "[1]", "value": 100.0, "unit": "%"}, {"measurement": "Means Dead", "setting": "[1]", "value": 100.0, "unit": "%"}, {"measurement": "Means KD (knockdown)", "setting": "[1]", "value": 0.0, "unit": "%"}, {"measurement": "mortality rates of dust mites", "setting": "dust mites exposed to low concentrations of nootkatone", "value": 100, "unit": "%"}]}
